Source: patent US11360104B2, “Microbial-based biosensors” (TRUSTEES OF BOSTON UNIVERSITY, priority 2017, dated 2022)
Where two headings read alike, the source gives them in different places.

Legend:
PinR = PinR (Nocardioides simplex (Pimelobacter simplex), UniProt A0A0A1DUF2); assay: Cross-reactivity test with estradiol, 1:4:6 QD:TF:oligo sensor; assay type: biochemical; conditions: FIG. 44E
From the text: FIGS. 44A-44E show a schematic of the biosensor and emission plots. […] These two graphs show the difference between our sensor (blue) and negative control (orange). The lowest number of acceptor molecules with the largest difference between the signal and noise (difference between blue and orange) is the concentration ratio that we want to work with moving forward. The sensor tested moving forward comprised a 1:4:6 ratio of QD:TF:oligo-dye. Fda=Donor emission intensity in the presence of acceptor; Fd=Donor emission intensity in the absence of acceptor; Relative Donor Emission=Fda/Fd; FRET efficiency=1−Fda/Fd; Fa=Acceptor emission intensity in the presence of the donor; [QD]=50 nM; Oligo-Cy5:QD=0-48. […] When the TF is bound to the QD and the oligo is bound to the TF, which is more likely in the absence of the analyte (red line), the donor emission intensity is decreased and the acceptor emission intensity is increased (energy transfer from the QD to the dye on the oligo). The presence of the analyte decreases the affinity of the TF for the oligo, so binding is less likely; as a result, the donor emission intensity is increased and the acceptor emission intensity decreased. […] This same sensor was tested with estradiol (estrogen) as well to test for cross-reactivity. […]

[1] = tested on: steroid responsive genome island (SRGI); assay: Whole transcriptome RNA-Seq of steroid treated P. simplex; assay type: cell-based, Pimelobacter simplex; conditions: P. simplex exposed to steroid vs solvent control, Log2 fold change
From the text: (§1) In order to identify steroid binding Transcription Factors, a whole transcriptome RNA sequencing (RNA-Seq) screen was developed (FIG. 7). The growth of Pimelobacter simplex bacteria was profiled with respect to the starting inoculation density, solvent toxicity, and the addition of steroids (FIG. 16). […] P. simplex bacteria were screened against the steroid solvents ethanol (EtOH) and dimethyl sulfoxide (DMSO). […] Steroid growth curves were similarly performed using a starting OD of 0.005 and constant solvent dosing with titrations of steroids. […] P. simplex bacteria were grown in the presence of 700 μM testosterone, 21.88 μM progesterone, 87.50 μM estrone, 21.88 μM 17β-estradiol, 21.88 μM hydrocortisone, or 175.00 μM aldosterone concentrations were selected for comparison.
Using accession gene tags, genes were annotated for steroid relevant enzymes or transcription factors. […] Allosteric TF binding sequences are often palindromes and typically located near the start of its gene location in an intergenic space. With such a design, the allosteric TF can regulate itself or the open reading frame (ORF) near it in response to its effector molecule. […] Once identified, the TFs were cloned and recombinantly expressed for thorough characterization.
Cells were grown in 6 mL volumes of media at the OD, solvent, and steroid concentrations found from the growth curves in 14 mL polypropylene round-bottom tubes (Corning #352059) in technical duplicate. The same controls as in the steroid exposure growth curve were used for setting up RNA extraction samples. The cells were incubated at their corresponding temperature with continuous orbital shaking at 150 rpm until the end of lag-phase, mid-log phase, or stationary phase from the start of inoculation. Afterward, samples were removed and a 1:1 ratio of RNAprotect Bacteria Reagent (Qiagen #76506) was added followed by spinning down at 4° C. for 10 minutes at 4000 g. Supernatant was removed and the pellet re-suspended in 300 μL of RNAprotect and transferred into 2.0 mL Safe-Lock Tubes (Eppendorf #3101). The samples were then spun down once again at 4° C. for 10 minutes at 10000 g. Once the supernatant has been removed the samples were placed on ice and ready for RNA extraction. RNA extraction was done by Qiacube (Qiagen #9001292) set to the RNeasy Protect Bacteria Mini Kit protocol of bacterial cell pellet with enzymatic lysis. Tube A was prepared as described except with the addition of 150 mg/mL lysozyme (Sigma-Aldrich #L6876) and 20 mg/mL proteinase K (Roche #03115879001) all diluted in 1xTE buffer. RNA samples were subsequently quantified using Qubit RNA HS Assay Kit (Thermo Fisher Scientific #Q32852) and analyzed using a RNA 6000 Pico Kit (Agilent 5067-1513) in a 2100 Bioanalyzer (Agilent G2939A). RNA samples were either immediately used for RNA-Seq library preparation or stored long-term at −80° C.
RNA-Seq libraries were then produced from these samples using a slightly modified ScriptSeq v2 RNA-Seq Library Preparation Kit (Illumina 455A/22124) ensuring use of unique index primers through ScriptSeq Index PCR Primers (Sets 1-4) 48 rxns/set (Illumina #SSIP1234).

Pimelobacter simplex = assay: Solvent and steroid exposure growth curves; conditions: P. simplex, starting OD 0.005, constant solvent
From the text: as §1
In order to properly determine the doubling time of the strain, growth curves were performed. All growth curves were done in 100 μL per well volumes in 96 well flat clear bottom black polystyrene TC-treated microplates which were individually wrapped with a lid and sterile (Corning #3603). Measurements were done by an Infinite M200 Pro (TECAN) spectrophotometer at the temperature suited for P. simplex. Readings were performed over 96 cycles of 15 minutes each at 600 nm absorbance with 25 flashes in a 3×3 (XY-Line) type reads per well. In between reads there was orbital shaking at 150 rpm frequency for a total of 10 minutes. In order to characterize the growth alone, a ½ serial dilution of 9 concentrations from 0.5-0.0020 OD600 nm were prepared in the respective media. Then each concentration was measured as previously described using a microplate reader (TECAN) and normalized against a media background control in technical triplicate. Afterward, an appropriate starting concentration of cells was chosen with a substantially long lag-phase, linear log phase, and a plateau of stationary-phase.
Once an appropriate starting cell concentration was chosen, a secondary growth curve was performed to test the toxicity levels of the solvents used to dissolve steroids of interest. Since the steroids used are heavily hydrophobic, they often need to be dissolved in organic solvents such as DMSO or ethanol which are toxic to bacteria at high concentrations. P. simplex was incubated under microplate reader conditions previously mentioned at a starting OD determined by the first growth curve with DMSO, ethanol, or H2O at ½ serial dilutions for a total of eight concentrations (50-0.39%) tested in technical triplicate. Two controls were included per solvent; a positive control without solvent and a media control which allowed for appropriate normalization. Solvent exposure growth curves allowed for choosing the maximum amount of solvent concentration that strains would sustain while maintaining relative viability in order to determine a range of steroid concentrations which could be used.
A tertiary growth curve was performed to test the toxicity levels of steroid specific to P. simplex. The strain was incubated under microplate reader conditions previously mentioned at a starting OD determined by the first growth curve and the highest solvent concentration corresponding to the steroid of interest with steroid at ½ serial dilutions for a total of seven concentrations tested in singlet. Testosterone, progesterone, 17β-estradiol, hydrocortisone, and aldosterone were all dissolved in ethanol while estrone was dissolved in DMSO. Three controls were included for each steroid; a positive control with the highest tolerable solvent concentration (%), a positive control with media, and a media control which allowed for normalization. Steroid exposure growth curves allowed for choosing the maximum amount of steroid concentration that P. simplex would sustain while maintaining relative viability.

[2] = tested on: TetR variant TetRc, tdTomato fusion (tetR-tdTomato); assay: FRET sensor 1 (tdTomato-TetRc + Cy5-DNA) titrated with aTc; aTc-induced TF-DNA unbinding; assay type: biochemical
From the text: (§2) The TetO cognate sequence comprises a 19 bp binding region. The 19 bp cognate sequence was flanked by 4-5 bp on each side to ensure binding, resulting in a 28 bp DNA oligo. One of the strands was labeled with the FRET acceptor Cy5 on both the 5′ and 3′ ends. A second 28 bp sequence with no affinity for TetR was similarly labeled to act as the negative control (Table 4).
(§3) Each sensor consists of Cy5-modified DNA acting as the FRET acceptor with either a fluorescent protein-transcription factor (FP-TF) fusion protein (expressed in E. coli) or quantum dot-transcription factor (QD-TF) conjugate as the donor.
(§4) A TF to DNA ratio was chosen for each sensor (1:3 for Sensor 1, 1:4.5 for Sensors 2 and 3) and kept constant for subsequent experiments testing sensor sensitivity to aTc.
(§5) To compare the three sensors, the sensor outputs were fit to a modified Hill equation written as:
(§6) [formula] where S0 is the intensity of the sensor signal with no analyte present, S1 is the intensity of the sensor signal at saturating analyte concentration, c is the analyte concentration, EC50 is the concentration at which there is 50% signal (aka the effective concentration, or EC50), and h is the Hill coefficient, which indicates cooperative binding. For visual comparison, the sensor outputs were normalized and plotted together (FIGS. 4A and B).

[3] = tested on: TetR variant TetRc (TetR-6His, on QD1); assay: FRET sensor 2 (QD1-TetRc + Cy5-DNA) titrated with aTc; aTc-induced TF-DNA unbinding; assay type: biochemical
From the text: as §2, §3, §4, §5, §6
(§7) For Sensors 2 and 3, QDs and tetR-6His were mixed at a 1:4 ratio with a final QD concentration of 50 nM for self-assembly of the tetR-6His to the surface of the QDs^21.

[4] = tested on: TetR variant TetRd (TetR-6His, on QD2); assay: FRET sensor 3 (QD2-TetRd + Cy5-DNA) titrated with aTc; aTc-induced TF-DNA unbinding; assay type: biochemical
From the text: as §2, §3, §4, §5, §6, §7

Chain of PinR (A0A0A1DUF2 entry or part of it): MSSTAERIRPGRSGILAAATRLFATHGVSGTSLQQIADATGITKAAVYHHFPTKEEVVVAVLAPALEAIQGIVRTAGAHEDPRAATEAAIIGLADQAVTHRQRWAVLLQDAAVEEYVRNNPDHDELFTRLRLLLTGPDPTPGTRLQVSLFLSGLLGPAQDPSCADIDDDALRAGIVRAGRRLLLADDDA

Structure (SMILES) | impact of concentration on the sensor binding/unbinding (Fa/Fd) (PinR) | upregulation of genes inside the SRGI [1] | highest steroid concentration exhibiting normal growth profile (Pimelobacter simplex) [µM] | h (Hill coefficient) ([2]; aTc, sensor 1) | EC50 ([2]; aTc, sensor 1, tdTomato:TF:DNA 1:1:3, Table 6 fit, read-out: EC50) [nM] | EC50 ([2]; sensor 1, legend of FIG. 4, read-out: c50 (analyte concentration that yields 50% signal, EC50)) [nM] | h (Hill coefficient) ([3]; aTc, sensor 2) | EC50 ([3]; aTc, sensor 2, QD:TF:DNA 1:4:18, Table 6 fit, read-out: EC50) [nM] | EC50 ([3]; sensor 2, legend of FIG. 4, read-out: c50 (analyte concentration that yields 50% signal, EC50)) [nM] | h (Hill coefficient) ([4]; aTc, sensor 3) | EC50 ([4]; aTc, sensor 3, QD:TF:DNA 1:4:18, Table 6 fit, read-out: EC50) [nM] | EC50 ([4]; sensor 3, legend of FIG. 4, read-out: c50 (analyte concentration that yields 50% signal, EC50)) [nM]
C[C@]12CC[C@@H]3c4ccc(O)cc4CC[C@H]3[C@@H]1CC[C@@H]2O [17β-estradiol, 17β-Estradiol] | no impact | not | 21.88 | – | – | – | – | – | – | – | – | –
Cc1c2c(c(O)c3c(O)cccc13)C(=O)[C@]1(O)C(=O)C(C(N)=O)=C(O)[C@@H](N(C)C)[C@@H]1C2 [aTc, anhydrotetracycline] | – | – | – | 1.57 ± 0.0802 | 218 ± 9.18 | 205 | 2.37 ± 0.191 | 699 ± 26.4 | 682 | 2.14 ± 0.185 | 133 ± 6.15 | 117
